These results are taken from article PMC5130624 (International journal for parasitology, 2016).

In series [1] the target is T1, recombinant TgCDPK1 (Toxoplasma gondii, UniProt Q9BJF5).
T1 sequence (Q9BJF5 1-507): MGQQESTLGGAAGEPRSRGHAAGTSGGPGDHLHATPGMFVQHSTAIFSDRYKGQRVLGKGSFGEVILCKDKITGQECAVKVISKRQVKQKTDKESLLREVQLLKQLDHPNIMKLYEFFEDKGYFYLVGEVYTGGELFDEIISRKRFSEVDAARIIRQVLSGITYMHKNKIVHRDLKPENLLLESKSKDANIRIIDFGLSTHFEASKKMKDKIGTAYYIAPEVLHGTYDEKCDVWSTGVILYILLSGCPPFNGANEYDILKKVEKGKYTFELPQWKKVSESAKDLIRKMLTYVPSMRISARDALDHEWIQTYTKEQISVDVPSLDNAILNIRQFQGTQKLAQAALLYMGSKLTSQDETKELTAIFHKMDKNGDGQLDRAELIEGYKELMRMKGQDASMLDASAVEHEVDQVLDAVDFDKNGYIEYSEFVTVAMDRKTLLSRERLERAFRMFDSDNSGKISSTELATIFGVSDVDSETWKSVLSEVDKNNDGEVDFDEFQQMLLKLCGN
Briefly: Recombinant TgCDPK1 thermal shift assay. It counts as binding. Particulars: 20 µM BKI, 5% DMSO; change in Tm vs DMSO control.

Series [2] relates to SnCDPK1 in S. neurona cell lysate. Briefly: Cell lysate thermal shift assay. The format is binding, Sarcocystis neurona. Particulars: BKI 2 µM, 0.5% DMSO, Tm (compound)-Tm (DMSO).
Series [3] concerns hERG. The conditions noted are these: cited from earlier work.
The conditions of series [4]: bovine, in vivo.
Series [5] concerns recombinant SnCDPK1. Briefly: Recombinant SnCDPK1 thermal shift assay. The format is binding, Sarcocystis neurona. The conditions noted are these: 20 µM BKI, 5% DMSO; change in Tm vs DMSO control.
Series [6] addresses recombinant SnCDPK1. Briefly: SnCDPK1 kinase activity assay. The format is biochemical, Sarcocystis neurona. Particulars: read-out: SnCDPK1 enzyme IC50; inhibition of phosphorylation activity.
The nature of series [7]: Oral pharmacokinetics in newborn calves. The conditions noted are these: unpublished data.
For series [8], the system named is S. neurona strain F9F merozoites. Briefly: S. neurona parasite growth assay in bovine turbinate cells. It counts as cell-based, Sarcocystis neurona.
Series [9] relates to TgCDPK1. Particulars: read-out: TgCDPK1 enzyme IC50; ref Johnson et al., 2012; cited from earlier work.

The structures appear in SMILES notation. Where two headings read alike, the source gives them in different places. Where only a bound is given, the exact number is not on record here.

One may read the IC50 as the midpoint of a concentration-inhibition curve. On to `CCOc1ccc2cc(-c3nn(C(C)(C)C)c(N)c3C(N)=O)cnc2c1` [compound 1517], for which the “Recombinant TgCDPK1 Thermal Shift (°C) at 20 µM” value in series [1] came out at 10.5 °C. The “S. neurona cell CDPK1 Thermal Stability (°C)” value in series [2] came to 8.0 °C. The hERG inhibition result in [3] (ref Vidadala et al., 2016) was “lack of hERG inhibition”. Further, the Oral pharmacokinetics entry in [4] was “outstanding oral pharmacokinetics”. Further, the “Recombinant SnCDPK1 Thermal Shift (°C) at 20 µM” value in series [5] was 9.6 °C. In addition, the IC50 in series [6] was below 10 nM.

A word on the EC50: it is the concentration giving half of the maximal effect. In the case of `CCOc1ccc2cc(-c3nn(CC4CCN(C)CC4)c4ncnc(N)c34)ccc2c1` [compound 1294], the “S. neurona cell CDPK1 Thermal Stability (°C)” value in [2] is 2.7 °C. Further, the hERG inhibition entry in series [3] (ref Ojo et al., 2014a) is “has recently been shown to have hERG inhibition”. In addition, the Oral pharmacokinetics entry in series [7] was “outstanding oral pharmacokinetics”. The IC50 in [6] was below 10 nM; in series [9] it was […]. In [8] (Sarcocystis neurona, in Bos taurus, 96 h, read-out: S. neurona cell growth EC50), the EC50 came out at 68 nM. In series [8] (added at parasite inoculation (0 h) versus 2 h p.i., 4 days), the “Effect of time of addition on growth inhibition” value is on record as “more effective if added at the time of infection rather than 2 h later”.
